Data set [1] can be described thus: Pharmacokinetic study after intravenous administration (half-life of elimination). To be noted: plasma concentration by anti-factor Xa bioassay. In kind it is in vivo, female Wistar Han rats. Here is the method:
Quantification of Compounds in Plasma
Rat plasmatic concentration of compounds (μg compound/mL plasma) was determined using a bioassay based on their anti-factor Xa activity (Stachrom HP kit, Diagnostica Stago as described above). This assay was carried out on a STA Compact (Diagnostica Stago). A specific calibration curve was preformed with each compound to be quantified in rat plasma.
Pharmacokinetic Study after Intravenous Administration (Half-Life of Elimination, T½)
The pharmacokinetics of the compounds of the present invention were investigated in female Wistar Han rats after intravenous administration.
Blood samples were taken at various time points and blood (9 volumes) was mixed with sodium citrate (1 volume) and cooled immediately on ice. The sample was subjected to a centrifugation at 3000×g for 10 minutes at low temperature (the plasma is typically stable for 24 h at temperature below 8° C.) and stored frozen at −20° C. Concentration of compound (per mL of plasma) was determined by their anti-factor Xa activity using factor Xa activity as described above.
For each compound, the half-life of elimination was calculated from the concentration versus time curve thus obtained.

The target in data set [2] is T1, factor Xa in the presence of AT (Homo sapiens, UniProt P01008).
T1 construct: purchased Diagnostica Stago Stachrom HP kit
T1 sequence (P01008 33-464): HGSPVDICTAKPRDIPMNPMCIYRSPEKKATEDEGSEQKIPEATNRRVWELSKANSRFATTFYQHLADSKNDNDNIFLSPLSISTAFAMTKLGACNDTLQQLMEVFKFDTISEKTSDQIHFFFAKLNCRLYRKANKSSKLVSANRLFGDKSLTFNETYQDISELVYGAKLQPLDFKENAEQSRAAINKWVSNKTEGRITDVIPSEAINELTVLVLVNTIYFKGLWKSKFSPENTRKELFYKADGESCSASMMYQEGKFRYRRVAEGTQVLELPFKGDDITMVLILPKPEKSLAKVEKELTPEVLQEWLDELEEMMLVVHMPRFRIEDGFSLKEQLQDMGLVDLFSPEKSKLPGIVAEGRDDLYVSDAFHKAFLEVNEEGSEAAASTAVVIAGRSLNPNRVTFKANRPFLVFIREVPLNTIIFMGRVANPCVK
As to the kind of experiment: Determination of anti-factor Xa activity (IC50), Stachrom HP kit. In kind it is biochemical. Conditions: factor Xa inhibition in the presence of AT. The procedure:
In the description of exemplified compounds, “IC50” represents the anti-factor Xa activity.
Determination of Anti-Factor Xa Activity of Compounds (IC50)
The compounds were compared as to their ability of inhibiting factor Xa in the presence of AT under standard conditions. For each compound a curve was plotted representing the inhibition % vs. concentration. The concentration inhibiting 50% of the factor Xa activity (IC50) was determined. A commercially available system was used for this purpose: compoundStachrom HP kit (Diagnostica Stago). This assay was carried out on a STA Compact (Diagnostica Stago).

For data set [3] the following is noted: cited from earlier work.

For orientation: IC50 means the concentration needed to halve the response being measured. On to `CCC1(C(=O)O)OC(OC2C(COS(=O)(=O)O)OC(OC3C(OC)C4OCC3(C(=O)O)OC4OC3C(COS(=O)(=O)O)OC(OC)C(OS(=O)(=O)O)C3OC)C(OS(=O)(=O)O)C2OS(=O)(=O)O)C(OC)C(OC)C1OC1OC(COS(=O)(=O)O)C(OC)C(OC)C1OC` (centres unmarked) [Compound PA01], for which the half-life in data set [1] (female, Wistar Han, rat, read-out: T1/2 (Rat), half-life of elimination (converted)) was 3.5 ± 0.3 h. Also, in data set [2], the IC50 was determined as 0.034 µM.
As for `CO[C@H]1O[C@H](COS(=O)(=O)O)[C@@H](O[C@@H]2O[C@@H](C(=O)O)[C@@H](O[C@H]3O[C@H](COS(=O)(=O)O)[C@@H](O[C@@H]4O[C@H](C(=O)O)[C@@H](O[C@H]5O[C@H](COS(=O)(=O)O)[C@@H](O)[C@H](O)[C@H]5NS(=O)(=O)O)[C@H](O)[C@H]4O)[C@H](OS(=O)(=O)O)[C@H]3NS(=O)(=O)O)[C@H](O)[C@H]2OS(=O)(=O)O)[C@H](O)[C@H]1NS(=O)(=O)O` [Fondaparinux sodium], the half-life in human in data set [3] is given as 17 h.
With `CCCCCCOC1C(COS(=O)(=O)O)OC(OC2C(OC)C(OC)C(OC3C(COS(=O)(=O)O)OC(OC4C(OC)C5OCC4(C(=O)O)OC5OC4C(COS(=O)(=O)O)OC(OC)C(OS(=O)(=O)O)C4OC)C(OS(=O)(=O)O)C3OS(=O)(=O)O)OC2(CC)C(=O)O)C(N)C1OCCCCCC` (centres unmarked) [Compound PA02], the “T1/2 (Rat), half-life of elimination” value in data set [1] was determined as 4.8 ± 0.5 h. Further, the IC50 in data set [2] came to 0.108 µM.

These data come from patent US9556215B2, “Synthetic pentasaccharides having short half-life and high activity” (CARBOMIMETICS, priority 2011, dated 2017).
